Experimental findings from patent US20260001928A1 (CORTERIA PHARMACEUTICALS, priority 2022, published 2026) are described below.

In general, EC50 refers to the concentration at which the effect is half-maximal. A low value points to a more potent agent.

The subject of this experiment is human LAD2 cells. It is filed as cell-based. Here is the method:
LAD2 cells (20000 cells/well, 96-well plates and 10,000 cells/well in 384-well plates) were incubated with compounds for 30 min. The R-hexosaminidase released into the supernatants and in cell lysates was quantified using the fluorogenic substrate 4-methylumbelliferyl-N-acetyl-b-D-glucosaminide.
On the day of the assay, the lyophilized peptides were dissolved in DMSO and/or PBS 1× pH 7.4, to obtain stock solutions. The stock solutions were used to prepare working serial dilutions to have final concentrations in assay ranging from 50, 100 or 300 to 0.1 or 0.001 μM. Each peptide was tested in biological duplicates. When compounds were dissolved in DMSO, the final solvent concentration in assay was 0.5% (v/v).
The percentage of degranulation, expressed as % of R-hexosaminidase release, was calculated by dividing the fluorescence signal of the supernatant by the sum of the signals from the supernatant and cell pellet (lysed with Triton X-100, final 1%) and multiplying by 100.
Dose-response curves were generated by plotting the % of R-hexosaminidase release versus total release of cells treated with triton (y-axis) against the concentrations of peptides tested (x-axis). The Mast Cell Degranulation (MCD) EC50 values and standard errors were calculated using XLfit 5.5.0.5 based on the following equation:
4 Parameter Sigmoidal Model: f=(A+((B−A)/(1+((C/x)^D))))
where A=Emin, B=Emax, C=EC50 and D=slope

*1 amine or outer side, *2 acyl side, *3 side chain or, on linkers, in order; H or OH if unused. Where a SMILES comes first, the peptide text is derived from it. Side-chain parts run from the residue outwards. [ ]: non-standard residue; d: D form. The star is where a group is joined. C18 diacid = O=C(O)CCCCCCCCCCCCCCCCC(=O)*; C16 diacid = O=C(O)CCCCCCCCCCCCCCC(=O)*; γGlu = O=C(O)[C@H](CCC(=O)[*:2])N[*:1]; NMeI = CC[C@H](C)[C@H](NC)C(=O)O; AEEA = NCCOCCOCC(=O)O; Aib = CC(C)(N)C(=O)O

Take `CC[C@H](C)[C@H](NC(C)=O)C(=O)N[C@H](C(=O)N[C@@H](CC(C)C)C(=O)N[C@@H](CO)C(=O)N[C@@H](CC(C)C)C(=O)N[C@@H](CC(=O)O)C(=O)N[C@@H](C(=O)N1CCC[C@H]1C(=O)N[C@H](C(=O)N[C@@H](CCCCN)C(=O)N[C@@H](CC(C)C)C(=O)N[C@@H](CCCCNC(=O)CC[C@H](NC(=O)CCCCCCCCCCCCCCC(=O)O)C(=O)O)C(=O)N[C@@H](CCCCN)C(=O)N[C@H](C(=O)N[C@@H](CC(C)C)C(=O)N[C@@H](CC(C)C)C(=O)N[C@@H](CCC(=O)O)C(=O)N[C@@H](CCC(N)=O)C(=O)N[C@@H](CCC(=O)O)C(=O)N[C@@H](CCCCN)C(=O)N[C@@H](CCC(N)=O)C(=O)N[C@@H](CCCCN)C(=O)N[C@@H](CCCCN)C(=O)N[C@@H](CCC(N)=O)C(=O)N[C@@H](CCCNC(=N)N)C(=O)N[C@@H](CCC(=O)O)C(=O)N[C@@H](CCC(N)=O)C(=O)N[C@@H](C)C(=O)N[C@@H](CCC(=O)O)C(=O)N[C@H](C(=O)N[C@@H](CC(N)=O)C(=O)N[C@@H](CCC(=O)O)C(=O)N[C@@H](CCC(N)=O)C(=O)N[C@H](C(=O)N[C@@H](CC(C)C)C(=O)N[C@@H](C)C(=O)N[C@@H](CCC(N)=O)C(=O)N[C@H](C(N)=O)C(C)C)[C@@H](C)CC)[C@@H](C)O)[C@@H](C)CC)[C@@H](C)CC)C(C)C)C(C)C` [56 (comp)] (Ac-IVLSLD[dV]PIKLK([γGlu-C16 diacid])KILLEQEKQKKQREQAETNEQILAQV-NH2): the EC50 was found to be 38.5 µM.
As to `CC[C@H](C)[C@H](N)C(=O)N[C@H](C(=O)N[C@@H](CC(C)C)C(=O)N[C@@H](CO)C(=O)N[C@@H](CC(C)C)C(=O)N[C@@H](CC(=O)O)C(=O)N[C@H](C(=O)N1CCC[C@H]1C(=O)N[C@H](C(=O)N[C@@H](CCCCN)C(=O)N[C@@H](CC(C)C)C(=O)N[C@@H](CCCCNC(=O)COCCOCCNC(=O)COCCOCCNC(=O)CC[C@H](NC(=O)CCCCCCCCCCCCCCCCC(=O)O)C(=O)O)C(=O)N[C@@H](CCCCN)C(=O)N[C@H](C(=O)N[C@@H](CC(C)C)C(=O)N[C@@H](CC(C)C)C(=O)N[C@@H](CCC(=O)O)C(=O)N[C@@H](CCC(N)=O)C(=O)N[C@@H](CCC(=O)O)C(=O)N[C@@H](CCCCN)C(=O)N[C@@H](CCC(N)=O)C(=O)N[C@@H](CCCCN)C(=O)N[C@@H](CCCCN)C(=O)N[C@@H](CCC(N)=O)C(=O)N[C@@H](CCCNC(=N)N)C(=O)N[C@@H](CCC(=O)O)C(=O)N[C@@H](CCC(N)=O)C(=O)N[C@@H](C)C(=O)N[C@@H](CCC(=O)O)C(=O)N[C@H](C(=O)N[C@@H](CC(N)=O)C(=O)N[C@@H](CCCCN)C(=O)N[C@@H](CCC(N)=O)C(=O)N[C@H](C(=O)N[C@@H](CC(C)C)C(=O)N[C@@H](C)C(=O)N[C@@H](CCC(N)=O)C(=O)N[C@H](C(N)=O)C(C)C)[C@@H](C)CC)[C@@H](C)O)[C@@H](C)CC)[C@@H](C)CC)C(C)C)C(C)C` [149 (comp)] (H-IVLSLDVPIKLK([AEEA-AEEA-γGlu-C18 diacid])KILLEQEKQKKQREQAETNKQILAQV-NH2), the response was half-maximal at 50.4 µM (EC50).
Molecule `CC[C@H](C)[C@H](N)C(=O)N[C@H](C(=O)N[C@@H](CC(C)C)C(=O)N[C@@H](CO)C(=O)N[C@@H](CC(C)C)C(=O)N[C@@H](CC(=O)O)C(=O)N[C@H](C(=O)N1CCC[C@H]1C(=O)N[C@H](C(=O)N[C@@H](CCCCN)C(=O)N[C@@H](CC(C)C)C(=O)N[C@@H](CCCCNC(=O)CC[C@H](NC(=O)CCCCCCCCCCCCCCC(=O)O)C(=O)O)C(=O)N[C@@H](CCC(N)=O)C(=O)N[C@H](C(=O)N[C@@H](CC(C)C)C(=O)N[C@@H](CC(C)C)C(=O)N[C@@H](CCCCN)C(=O)N[C@@H](CCC(N)=O)C(=O)N[C@@H](CCC(=O)O)C(=O)N[C@@H](CCCNC(=N)N)C(=O)N[C@@H](CCC(N)=O)C(=O)N[C@@H](CCCCN)C(=O)N[C@@H](CCCCN)C(=O)N[C@@H](CCC(N)=O)C(=O)N[C@@H](CCCNC(=N)N)C(=O)N[C@@H](CCC(=O)O)C(=O)N[C@@H](CCC(N)=O)C(=O)N[C@@H](C)C(=O)N[C@@H](CCC(=O)O)C(=O)N[C@@H](CCCCN)C(=O)N[C@@H](CC(N)=O)C(=O)N[C@@H](CCCCN)C(=O)N[C@@H](CCC(N)=O)C(=O)N[C@H](C(=O)N[C@@H](CC(C)C)C(=O)N[C@@H](CCC(=O)O)C(=O)N[C@@H](CCC(N)=O)C(=O)N[C@H](C(N)=O)C(C)C)[C@@H](C)CC)[C@@H](C)CC)[C@@H](C)CC)C(C)C)C(C)C` [151 (comp)] (H-IVLSLDVPIKLK([γGlu-C16 diacid])QILLKQERQKKQREQAEKNKQILEQV-NH2) returned an EC50 of 32.9 µM. Against the preceding molecule, the EC50 is about 1.5-fold lower.
Then `CC[C@H](C)[C@H](NC)C(=O)N[C@H](C(=O)N[C@@H](CC(C)C)C(=O)N[C@@H](CO)C(=O)N[C@@H](CC(C)C)C(=O)N[C@@H](CC(=O)O)C(=O)N[C@@H](C(=O)N1CCC[C@H]1C(=O)N[C@H](C(=O)N[C@@H](CCCCN)C(=O)N[C@@H](CC(C)C)C(=O)N[C@@H](CCCCNC(=O)COCCOCCNC(=O)COCCOCCNC(=O)CC[C@H](NC(=O)CCCCCCCCCCCCCCCCC(=O)O)C(=O)O)C(=O)N[C@@H](CCCCN)C(=O)N[C@H](C(=O)N[C@@H](CC(C)C)C(=O)N[C@@H](CC(C)C)C(=O)N[C@@H](CCC(=O)O)C(=O)N[C@@H](CCC(N)=O)C(=O)N[C@@H](CCC(=O)O)C(=O)N[C@@H](CCCCN)C(=O)N[C@@H](CCC(N)=O)C(=O)N[C@@H](CCCCN)C(=O)N[C@@H](CCCCN)C(=O)N[C@@H](CCC(N)=O)C(=O)N[C@@H](CCCNC(=N)N)C(=O)N[C@@H](CCC(=O)O)C(=O)N[C@@H](CCC(N)=O)C(=O)N[C@@H](C)C(=O)N[C@@H](CCC(=O)O)C(=O)N[C@H](C(=O)N[C@@H](CC(N)=O)C(=O)NC(C)(C)C(=O)N[C@@H](CCC(N)=O)C(=O)N[C@H](C(=O)N[C@@H](CC(C)C)C(=O)N[C@@H](C)C(=O)N[C@@H](CCC(N)=O)C(=O)N[C@H](C(N)=O)C(C)C)[C@@H](C)CC)[C@@H](C)O)[C@@H](C)CC)[C@@H](C)CC)C(C)C)C(C)C` [Cmpd 118] (H-[NMeI]VLSLD[dV]PIKLK([AEEA-AEEA-γGlu-C18 diacid])KILLEQEKQKKQREQAETN[Aib]QILAQV-NH2), with over 100 µM.
`CC[C@H](C)[C@H](NC(C)=O)C(=O)N[C@H](C(=O)N[C@@H](CC(C)C)C(=O)N[C@@H](CO)C(=O)N[C@@H](CC(C)C)C(=O)N[C@@H](CC(=O)O)C(=O)N[C@@H](C(=O)N1CCC[C@H]1C(=O)N[C@H](C(=O)N[C@@H](CCCCN)C(=O)N[C@@H](CC(C)C)C(=O)N[C@@H](CCCCNC(=O)CC[C@H](NC(=O)CCCCCCCCCCCCCCCCC(=O)O)C(=O)O)C(=O)N[C@@H](CCCCN)C(=O)N[C@H](C(=O)N[C@@H](CC(C)C)C(=O)N[C@@H](CC(C)C)C(=O)N[C@@H](CCC(=O)O)C(=O)N[C@@H](CCC(N)=O)C(=O)N[C@@H](CCC(=O)O)C(=O)N[C@@H](CCCCN)C(=O)N[C@@H](CCC(N)=O)C(=O)N[C@@H](CCCCN)C(=O)N[C@@H](CCCCN)C(=O)N[C@@H](CCC(N)=O)C(=O)N[C@@H](CCCNC(=N)N)C(=O)N[C@@H](CCC(=O)O)C(=O)N[C@@H](CCC(N)=O)C(=O)N[C@@H](C)C(=O)N[C@@H](CCC(=O)O)C(=O)N[C@H](C(=O)N[C@@H](CC(N)=O)C(=O)NC(C)(C)C(=O)N[C@@H](CCC(N)=O)C(=O)N[C@H](C(=O)N[C@@H](CC(C)C)C(=O)N[C@@H](C)C(=O)N[C@@H](CCC(N)=O)C(=O)N[C@H](C(N)=O)C(C)C)[C@@H](C)CC)[C@@H](C)O)[C@@H](C)CC)[C@@H](C)CC)C(C)C)C(C)C` [Cmpd 125] (Ac-IVLSLD[dV]PIKLK([γGlu-C18 diacid])KILLEQEKQKKQREQAETN[Aib]QILAQV-NH2) displayed an EC50 of over 100 µM.
`CC[C@H](C)[C@H](NC)C(=O)N[C@H](C(=O)N[C@@H](CC(C)C)C(=O)N[C@@H](CO)C(=O)N[C@@H](CC(C)C)C(=O)N[C@@H](CC(=O)O)C(=O)N[C@@H](C(=O)N1CCC[C@H]1C(=O)N[C@H](C(=O)N[C@@H](CCCCN)C(=O)N[C@@H](CC(C)C)C(=O)N[C@@H](CCCCNC(=O)CC[C@H](NC(=O)CCCCCCCCCCCCCCCCC(=O)O)C(=O)O)C(=O)N[C@@H](CCCCN)C(=O)N[C@H](C(=O)N[C@@H](CC(C)C)C(=O)N[C@@H](CC(C)C)C(=O)N[C@@H](CCC(=O)O)C(=O)N[C@@H](CCC(N)=O)C(=O)N[C@@H](CCC(=O)O)C(=O)N[C@@H](CCCCN)C(=O)N[C@@H](CCC(N)=O)C(=O)N[C@@H](CCCCN)C(=O)NC(C)(C)C(=O)N[C@@H](CCC(N)=O)C(=O)N[C@@H](CCCNC(=N)N)C(=O)N[C@@H](CCC(=O)O)C(=O)N[C@@H](CCC(N)=O)C(=O)N[C@@H](C)C(=O)N[C@@H](CCC(=O)O)C(=O)N[C@H](C(=O)N[C@@H](CC(N)=O)C(=O)NC(C)(C)C(=O)N[C@@H](CCC(N)=O)C(=O)N[C@H](C(=O)N[C@@H](CC(C)C)C(=O)N[C@@H](C)C(=O)N[C@@H](CCC(N)=O)C(=O)N[C@H](C(N)=O)C(C)C)[C@@H](C)CC)[C@@H](C)O)[C@@H](C)CC)[C@@H](C)CC)C(C)C)C(C)C` [Cmpd 145] (H-[NMeI]VLSLD[dV]PIKLK([γGlu-C18 diacid])KILLEQEKQK[Aib]QREQAETN[Aib]QILAQV-NH2) came in with an EC50 of over 100 µM.
